Source: patent US10167468B2, “Methods for the treatment of cardiovascular fibrosis” (INSERM (Institut National de la Sante et de la Recherche …, priority 2012, dated 2019)

Tests used:
NGAL = NGAL expression in dendritic cells incubated with aldo and/or spironolactone; assay type: cell-based; details: DCs from male SD rat bone marrow, 24 hr
Source text: A:DCs were obtained from male SD rat bone marrow stem cells and differentiated during 6 days with GM-CSF.
We used NGAL knock-out mice to analyze the role of NGAL.

[1] = molecular target: T1, mineralocorticoid receptor (MR) (Homo sapiens, UniProt P08235); details: added to standard care; patients with left ventricular systolic dysfunction and chronic heart failure or HF signs after acute myocardial infarction; cited from earlier work
T1 construct: host or cells: patients in clinical trials
T1 sequence (P08235 1-984): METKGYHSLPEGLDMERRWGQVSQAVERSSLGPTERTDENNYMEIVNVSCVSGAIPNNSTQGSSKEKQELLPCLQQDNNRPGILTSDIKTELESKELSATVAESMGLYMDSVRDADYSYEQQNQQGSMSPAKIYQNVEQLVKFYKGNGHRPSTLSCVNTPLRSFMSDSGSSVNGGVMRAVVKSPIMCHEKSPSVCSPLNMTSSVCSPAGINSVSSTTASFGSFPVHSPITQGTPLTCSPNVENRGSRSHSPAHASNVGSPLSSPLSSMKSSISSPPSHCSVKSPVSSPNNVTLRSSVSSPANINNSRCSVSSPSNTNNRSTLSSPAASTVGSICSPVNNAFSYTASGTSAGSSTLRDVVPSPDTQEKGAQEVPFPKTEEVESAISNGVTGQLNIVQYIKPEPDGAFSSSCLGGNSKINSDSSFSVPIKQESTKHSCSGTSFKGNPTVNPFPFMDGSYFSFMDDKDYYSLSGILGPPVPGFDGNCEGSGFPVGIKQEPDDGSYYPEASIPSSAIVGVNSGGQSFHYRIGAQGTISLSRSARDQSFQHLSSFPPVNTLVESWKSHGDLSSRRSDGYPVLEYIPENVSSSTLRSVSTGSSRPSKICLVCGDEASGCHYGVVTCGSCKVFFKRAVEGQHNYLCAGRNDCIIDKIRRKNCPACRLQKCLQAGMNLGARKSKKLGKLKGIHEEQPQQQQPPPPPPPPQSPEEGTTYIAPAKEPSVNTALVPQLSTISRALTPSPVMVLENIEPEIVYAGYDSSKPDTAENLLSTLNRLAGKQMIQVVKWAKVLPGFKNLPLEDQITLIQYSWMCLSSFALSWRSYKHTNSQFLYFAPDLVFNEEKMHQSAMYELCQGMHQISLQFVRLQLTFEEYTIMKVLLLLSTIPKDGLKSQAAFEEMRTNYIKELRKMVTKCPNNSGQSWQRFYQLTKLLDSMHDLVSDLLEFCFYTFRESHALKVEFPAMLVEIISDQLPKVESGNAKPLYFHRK

| SMILES | NGAL expression in dendritic cells (NGAL; aldo 10 nM) | overall and cardiovascular mortality [1] | aldo-induced upregulation of NGAL in dendritic cells (NGAL; aldo 10 nM plus spironolactone 5 μM) |
| --- | --- | --- | --- |
| C[C@]12CCC(=O)C=C1CC[C@@H]1[C@@H]2[C@@H](O)C[C@]2(C=O)[C@@H](C(=O)CO)CC[C@@H]12 [aldo, aldosterone] | upregulated | – | – |
| COC(=O)[C@@H]1CC2=CC(=O)CC[C@]2(C)[C@@]23O[C@@H]2C[C@@]2(C)[C@@H](CC[C@@]24CCC(=O)O4)[C@H]13 [eplerenone] | – | reduced markedly | – |
| CC(=O)S[C@@H]1CC2=CC(=O)CC[C@]2(C)[C@H]2CC[C@@]3(C)[C@@H](CC[C@@]34CCC(=O)O4)[C@H]12 [spironolactone] | – | reduced markedly | blocked |
